# Experimental data reported in publication PMC11085308, “Design, Synthesis and Biological Activity of Novel Methoxy- and Hydroxy-Substituted N-Benzimidazole-Derived Carboxamides” (Molecules, 2024).
# Assays:
# H460 (lung carcinoma) = test: Antiproliferative activity in vitro, MTT assay, 72 h; type: cell-based; settings: Homo sapiens, NCI-H460, 72 h incubation
# Method: (§1) The experiments were carried out on four human cell lines which are derived from three cancer types: H460 (lung carcinoma), HCT 116 (colorectal carcinoma), MCF-7 (human breast cancer) and the non-cancerous cell line HEK 293 (human embryonic kidney).
# (§2) The results are compared with the known antiproliferative agents doxorubicin and etoposide. […] Therefore, it is not clear whether the observed antiproliferative activity is due to the biological activity of the compounds or to precipitation.
# (§3) The experiments were performed on four human cell lines, including HCT 116 (colon carcinoma), H 460 (lung carcinoma), MCF-7 (breast carcinoma) and HEK 293 (human embryonic kidney cells), in line with previously published experimental procedures. Briefly, the cells were grown in DMEM medium with the addition of 10% fetal bovine serum (FBS), 2 mM of L-glutamine, 100 U/mL of penicillin and 100 µg/mL of streptomycin and cultured as monolayers at 37 °C in a humidified atmosphere with 5% CO2. Cells were seeded at 2 × 10^3 cells/well in standard 96-well microtiter plates and left to attach for 24 h. The next day, a test compound was added in five serial 10-fold dilutions. The rate of cell growth was evaluated after 72 h of incubation with MTT assays. […] Each test was performed in quadruplicate in at least two individual experiments.
# [1] = test system: HCT 116 (colorectal carcinoma); test: as above; type: cell-based; settings: Homo sapiens, 72 h incubation, '-' with footnote a = did not show biological activity due to precipitation
# Method: as §1, §2, §3
# [2] = test system: MCF-7 (human breast cancer); test: as above; type: cell-based; settings: MCF7, 72 h incubation
# Method: as §1, §2, §3
# [3] = test system: HEK 293 (human embryonic kidney); test: Antiproliferative activity in vitro, MTT assay, 72 h, non-cancerous cell line; type: cell-based; settings: HEK293, 72 h incubation, '-' with footnote a = did not show biological activity due to precipitation
# Method: as §1, §2, §3
# [4] = Ferric reducing/antioxidant power (FRAP assay); parameters: FRAP: unit not given here; settings: for FRAP: Fe2+ equivalents, triplicate; for FRAP ferric reducing/antioxidant power, in words: compared to the standard BHT
# Method: (§4) The synthesized benzazole acrylonitrile derivatives were screened for their antioxidative potency by using in vitro assays, namely DPPH and ABTS as free radical scavenging assays and FRAP as a ferric reducing/antioxidant power assay.
# The antioxidant activity of a substance is directly related to its reducing power.
# The FRAP method was carried out according to previously described procedures with some modifications to make it compatible with an assay on a 96-well microplate. All results were expressed as Fe^2+ equivalents (Fe^2+ µmol). Ferrous sulphate (FeSO4 × 7H2O) was used to develop a standard curve of 20–2000 µmol/l for the FRAP test.
# [5] = ABTS radical scavenging assay; settings: for IC50: head prints 'mM (* µM)', no cell carries an asterisk
# Text: as §4
# (§5) The well-known antioxidant butylated hydroxytoluene (BHT) was used as a standard for comparing activity during testing. The DPPH assay is a standard commonly used test for the in vitro assessment of the antioxidant capacity of novel compounds by using their ability to scavenge the stable radical 1,1-diphenyl-picrylhydrazyl. […] Another test used to evaluate the antioxidative capacity of novel compounds was the ABTS test, by which their activity was evaluated by scavenging the stable radical 3-ethylbenzthiazoline-6-sulphonic acid.
# The total antioxidant activity (TEAC) method was adapted for use with a microplate reader. […] On the day of analysis, the ABTS•+ solution was diluted with PBS (pH7.4) to attain an absorbance of 0.700 ± 0.01 at 734 nm. This radical state remained stable for over two days when stored in the dark at room temperature. The standards and solutions of the tested compounds (10 µL) were mixed with the working ABTS•+ solution (200 µL) in microplate wells and incubated at room temperature for 5 min. The reduction in absorbance at 734 nm was measured using a µQuant (Biotec Inc., Auburn, CA, USA) microplate reader. The percentage scavenging of the test samples at each concentration was calculated using the following formula:[(Abscontrol − Abscompound)/Abscontrol] × 100
# The IC50 values for each compound were calculated from dose–response curves. All measurements where carried out in triplicate with a linear regression analysis.
# S. aureus ATCC 29213 = test: Antibacterial activity in vitro, broth microdilution MIC; type: cell-based, Staphylococcus aureus; settings: for MIC S. aureus ATCC 29213: broth microdilution, 16–24 h at 37 °C, unit inferred
# Method: (§6) The in vitro antibacterial activity of the synthesized benzamides 7–12 and 31–37 was evaluated against a panel of eight different bacterial strains. The Gram-positive bacterial strains comprised S. aureus, S. pneumoniae and E. faecalis, and the panel of Gram-negative bacteria consisted of E. coli, K. pneumoniae, A. baumannii and P. aeruginosa.
# (§7) The selected bacterial strains were Gram-negative Escherichia coli (ATCC 25922) and Gram-positive Staphylococcus aureus (ATCC 29213) and S. Pneumoniae (ATCC 49619). The Saccharomyces cerevisiae ATCC 7752 strain was tested as a eukaryotic model organism. Synthesized compounds were prepared as 10 mM DMSO solutions and tested in a final concentration range of 100–0.2 µM [39].
# (§8) Broth microdilution testing was performed according to CLSI (Clinical Laboratory Standards Institute) guidelines. The MIC (minimal inhibitory concentration) value was defined as the last tested concentration of a compound at which there is no visible growth of bacteria. Inoculums for each microorganism were prepared using the direct colony suspension method, where broth solutions that achieved turbidity equivalent to 0.5 McFarland standards were additionally diluted 100× with cation-adjusted MH media (Becton Dickinson). All test plates were incubated for 16–24 h at 37 °C.
# A. baumannii ATCC 17978 = test: as above; type: cell-based; settings: 16–24 h at 37 °C, unit inferred
# Method: as §6, §7, §8
# E. faecalis ATCC 29212 = test: as above; type: cell-based; settings: for Selectivity of antibacterial activity, in words: against the Gram-positive strain E. faecalis; for MIC E. faecalis ATCC 29212: broth microdilution, 16–24 h at 37 °C, unit inferred
# Method: as §6, §7, §8
# P. aeruginosa ATCC 27853 = test: as above; type: cell-based; settings: 16–24 h at 37 °C, unit inferred
# Method: as §6, §7, §8
# E. coli ATCC 25922 = test: as above; type: cell-based, Escherichia coli; settings: 16–24 h at 37 °C, unit inferred
# Method: as §6, §7, §8
# E. coli efflux del. = test: microbe, parasite or virus in culture; type: cell-based, Escherichia coli; settings: for MIC E. coli efflux del.: broth microdilution, 16–24 h at 37 °C, unit inferred
# Method: as §6, §7, §8
# [6] = DPPH free radical scavenging assay; settings: compared to the standard BHT
# Text: as §4, §5
# Determination of the reducing activity of the stable radical 1,1-diphenyl-picrylhydrazyl (DPPH):
# The reducing activity of the investigated systems was measured by the DPPH method according to previously described procedures with modifications to ensure their use on a 96-well microplate. Briefly, equal volumes of various concentrations of the tested molecules (dissolved in DMSO) were added to a solution of DPPH (final concentration of 50 µM in absolute ethanol). Ethanol and DMSO were used as control solutions in line with earlier reports. The radical scavenging activity was calculated using the following formula:[(A517 control − A517 compound)/A517 control] × 100.
# The IC50 values were calculated from dose–response curves using nonlinear regression analysis with the GraphPad Prism 8 Ink. program. All measurements were carried out in triplicate.
# HCT 116 cells = test: Antioxidative activity assay in cells (ROS level, DCFH-DA fluorescence); type: cell-based, human; settings: HCT 116, TBHP 100 µM plus 10 µM compound, 1 h, compared to NAC
# Text: We further selected compounds 9, 10, 32 and 36, showing quite pronounced antioxidant capacity in the DPPH and FRAP assays, in order to test their pro- and antioxidant activity in tumor cells. In order to test the antioxidant activity of the selected compounds in tumor cells (Figure 2), we treated HCT 116 cells with tert-butyl hydroperoxide (TBHP), a substance commonly used for inducing oxidative stress in cells and tissues, alone or in combination with a known antioxidative agent, N-acetyl-L-cysteine (NAC), or the tested compounds. We measured the formation of oxidative stress byproducts using 2′,7′-dichlorodihydrofluorescein diacetate (DCFH-DA).
# For the antioxidative activity assay, 2.5 × 10^4 cells were seeded into 96-well microtiter plates and left to attach for 24 h. The next day, cells were washed with PBS and incubated in FBS-free DMEM medium with 25 µM of DCFH-DA fluorescence dye. After 45 min of incubation, the medium was discarded, and the cells were washed with PBS.
# After the washing step, the cells were incubated with 100 µM of tert-butyl hydroperoxide (TBHP) alone or in combination with antioxidative agents (50 mM of N-Acetyl-L-cysteine-NAC or 10 µM of the tested compounds) in PBS for 1 h at 37 °C. DCFH-DA fluorescence was recorded on a microplate fluorimeter reader (Tecan) with an excitation beam of 485 nm, while the emitted fluorescence was collected at 535 nm. All tests were presented as the means of two independent measurements carried out in triplicate. One-way ANOVA with Tukey’s post hoc test was used for statistical analysis: *—p < 0.05; **—p < 0.01; ***—p < 0.001.
# Figure 2 Antioxidative activity of selected systems. HCT 116 cells were treated with a combination of H2O2 (4 mM) and N-acetyl-L-cysteine (NAC, 10 mM) or the tested compounds (10 mM). Treatment with H2O2 (4 mM) alone was used as a control for ROS induction. The level of reactive oxygen species (ROS) was measured with the fluorescent dye DCFH-DA using a fluorimeter. The data presented here are the results of three independent measurements carried out in triplicate. A one-way ANOVA with Tukey’s post hoc test was used for statistical analysis, *** p < 0.001; ns—not significant.
SMILES,IC50 (H460 (lung carcinoma)),IC50 [1],IC50 [2],IC50 [3],FRAP [4],IC50 [5],MIC S. aureus ATCC 29213 (S. aureus ATCC 29213),MIC A. baumannii ATCC 17978 (A. baumannii ATCC 17978),"Selectivity of antibacterial activity, in words (E. faecalis ATCC 29212)",MIC E. faecalis ATCC 29212 (E. faecalis ATCC 29212),MIC P. aeruginosa ATCC 27853 (P. aeruginosa ATCC 27853),MIC E. coli ATCC 25922 (E. coli ATCC 25922),MIC E. coli efflux del. (E. coli efflux del.),melting point,"FRAP ferric reducing/antioxidant power, in words [4]","DPPH free radical scavenging activity, in words [6]",Level of ROS in cells under induced oxidative stress (HCT 116 cells),also measured
"Cn1c(NC(=O)c2ccc(O)cc2O)nc2cc(C#N)ccc21 [Compound 35, N-(5-cyano-1-methyl-1H-benzo[d]imidazol-2-yl)-2,4-dihydroxybenzamide]",> 100 µM,10 ± 1.6 µM,8.7 ± 1.5 µM,33.5 ± 6.5 µM,278.61 ± 3.28,0.19 ± 0.04 mM,> 64 µM,> 64 µM,selective antibacterial activity,16 µM,> 64 µM,> 64 µM,64 µM,273 to 275 °C,–,–,–,–
"Cn1c(NC(=O)c2cc(O)c(O)c(O)c2)nc2ccccc21 [Compound 9, 3,4,5-trihydroxy-N-(1-methyl-1H-benzo[d]imidazol-2-yl)benzamide]",> 100 µM,> 100 µM,35.5 ± 5.2 µM,32.3 ± 6.5 µM,4036.77 ± 8.82,–,64 µM,> 64 µM,–,64 µM,> 64 µM,> 64 µM,> 64 µM,–,excellent in vitro antioxidant activity,significantly improved,reducing the level of ROS in the cells,–
"Cc1cc(C(C)(C)C)c(O)c(C(C)(C)C)c1 [BHT, butylated hydroxytoluene, reference compound]",–,–,–,–,–,0.02312 ± 0.00012 mM,–,–,–,–,–,–,–,–,–,–,–,–
"O=C(Nc1nc2ccccc2[nH]1)c1ccc(O)cc1O [Compound 31, N-(1H-benzo[d]imidazol-2-yl)-2,4-dihydroxybenzamide]",> 100 µM,38.6 ± 15.6 µM,35.1 ± 6.9 µM,24.5 ± 6.4 µM,89.29 ± 21.92,0.13 ± 0.006 mM,> 64 µM,> 64 µM,selective antibacterial activity,32 µM,> 64 µM,> 64 µM,64 µM,212 to 214 °C,–,–,–,–
"O=C(Nc1nc2ccccc2[nH]1)c1cc(O)c(O)c(O)c1 [Compound 32, N-(1H-benzo[d]imidazol-2-yl)-3,4,5-trihydroxybenzamide]",> 100 µM,> 100 µM,39.8 ± 1.4 µM,66 ± 1.7 µM,3245.79 ± 16.38,–,> 64 µM,> 64 µM,–,> 64 µM,> 64 µM,> 64 µM,> 64 µM,230 to 234 °C,excellent in vitro antioxidant activity,significantly improved,reducing the level of ROS in the cells,–
"CCCCCCn1c(NC(=O)c2cc(O)c(O)c(O)c2)nc2cc(C#N)ccc21 [Compound 37, N-(5-cyano-1-hexyl-1H-benzo[d]imidazol-2-yl)-3,4,5-trihydroxybenzamide]",47 ± 8.7 µM,37.8 ± 6 µM,38.2 ± 3.2 µM,37.9 ± 0.4 µM,2780.81 ± 15.12,0.002 ± 0.0001 mM,16 µM,> 64 µM,selective antibacterial activity,16 µM,> 64 µM,> 64 µM,16 µM,290 to 294 °C,excellent in vitro antioxidant activity,significantly improved,–,"ABTS antioxidative activity, in words ([5]; in comparison to the standard BHT): pronounced antioxidative activity; MIC (S. aureus ATCC 29213; Staphylococcus aureus, ATCC29213, read-out: MIC S. aureus): 16 µM; MIC (E. faecalis ATCC 29212; Enterococcus faecalis, ATCC29212, read-out: MIC E. faecalis): 16 µM; MIC (E. coli efflux del.; Escherichia coli, read-out: MIC E. coli efflux del.): 16 µM"
